Results as given in a melting point compilation (Tetko et al.; mined from patent text by program, amines drawn as free bases though some values may be those of a salt).

melting point	SMILES
125 to 126 °C	CCN(CC)S(=O)(=O)c1ccc2c(c1)C(C(Cl)(Cl)Cl)OC(C(Cl)(Cl)Cl)O2 (stereo not given)
92 to 94 °C	CCOC(=O)NC(=NCCCCc1ccccn1)NCCCc1c[nH]cn1
101 to 103 °C	CC1C(=CO)C(=O)c2c(O)cc(OCCCCc3ccccc3)cc2N1C=O (stereo not given)
178 to 180 °C	COc1nc(N)cc2cccnc12
307 °C	CC(=O)Nc1ccc2c(c1)CC1CC(=O)NN=C21 (single isomer, unassigned; (-))
87 to 89 °C	Cc1noc(NS(=O)(=O)c2cccc3c(N(C)C)cccc23)c1Br
200 to 201 °C	Nc1cc(-c2nnc(SCc3ccc(F)cc3)o2)ccn1
187 to 189 °C	COC(=O)NCCCCC(NC(=O)OC)C(=O)OC (stereo not given)
122 to 125 °C	CC(C)(C(=O)O)c1ccc(C(=O)CCCN2CCC(=C3c4ccccc4CCc4ccccc43)CC2)cc1
209 to 210 °C	O=C(c1cccs1)c1cnn2c(-c3cccc(NC(=O)C4CCCC4)c3)ccnc12
116 to 117 °C	N#Cc1ccccc1CN1CCSC1=O
93 to 95 °C	Cc1ccc(N2CCc3ccccc32)c([N+](=O)[O-])c1
56 to 58 °C	N#CC(=NOS(=O)(=O)CCCCl)c1cccs1
171 to 174 °C	Cc1ccccc1NC(=O)NCC1(c2ccccc2)CCCCC1
76 to 78 °C	Cc1nc(C)c(N2N=C(c3ccc([N+](=O)[O-])cc3)c3cc4c(cc3CC2C)OCO4)o1 (stereo not given)
> 250 °C	CC1CCCN(c2c(Br)cc3c4c(cccc24)C(=O)N(O)C3=O)C1 (stereo not given)
161 to 164 °C	CC(C)(C)OC(=O)N1CCC(c2ccc3oc(-c4ccc(C(F)(F)F)cc4)nc3c2)CC1
85 to 87 °C	CCOC(=O)c1c(C)nc2c(nc(C)n2C)c1OCC
65 to 67 °C	Cc1cc(OS(=O)(=O)C(F)(F)F)cc(=O)n1C
74 °C	CCCCOc1ccc(-c2nc(Cl)c(C=O)[nH]2)cc1
171 to 172 °C	CCCCCCCCNc1nc(Cl)nc(NCCCCCCCC)n1
280 to 283 °C	Cn1nc(N)c2c(=O)n3c(nc21)SCC3
159 to 160 °C	CC(C)(C)c1ccnc(-c2cc(C(C)(C)C)ccn2)c1

melting point	SMILES
98 to 99 °C	Cc1ccc(-c2nc(Cc3cccc(C=O)c3)c(C)o2)cc1
81.5 to 82.5 °C	C[C@H]1OC(=O)N[C@@H]1C(=O)NCCO[N+](=O)[O-]
> 250 °C	Cc1c(O)ccc2c(=O)cc(N3CCOCC3)oc12
198 to 200 °C	Cn1c2c(c3ccccc3c1=O)C(=O)c1cc(OCc3ccccc3)c(OCc3ccccc3)cc1-2
38.1 to 38.3 °C	CCCOC(=NNC(=O)OC)OCCC
159 to 161 °C	CC(=O)Oc1ccc(CN2C(=O)C(=O)c3ccccc32)cc1
246 to 248 °C	O=c1c(O)cn(-c2cccc(C(F)(F)F)c2)nc1-c1ccnn1-c1ccccc1
145 to 146 °C	COc1ccc2c(CN3CCC[C@H]3C(=O)O)cc3cc4c(cc3c2c1)OCO4
195 to 196 °C	CC(C)(C)C(NC(=O)Cc1ccc(Cl)cc1)NC(=NC#N)Nc1cccc2ncccc12 (stereo not given)
154 to 158 °C	CCCCCCCCCCCCNC(=O)c1cc(-c2cccc(C(F)(F)F)c2)c(OCC(=O)O)c(-c2cccc(C(F)(F)F)c2)c1
> 250 °C	NCC1Cc2cc(-c3ccc(Cl)cc3)cc(F)c2O1 (stereo not given)
184 to 185 °C	COC(=O)c1nc(N)sc1-c1ccc(SC)cc1
135 to 138 °C	O=C(Nc1cccc(C2CN3CCSC3=N2)c1)c1ccc(Cl)nc1 (stereo not given)
120 to 122 °C	OC(c1ccc(Cl)cc1)(c1ccccc1F)C1CO1 (stereo not given)
123 to 126 °C	COc1cc2c(cc1O)C(Cc1cc(Cl)ccc1[N+](=O)[O-])N(C)CC2 (stereo not given)
89 °C	CN1CCC(c2c[nH]c3ccc(C(=O)c4ccc(F)cc4)cc23)CC1
108 to 109 °C	CC(Oc1ccc(-c2ccc(F)c(C#N)c2)cc1)C(O)CCc1cccnc1 (stereo not given)
98 to 99 °C	O=C(F)c1c(Cl)ccc2cc(C(F)(F)F)cnc12
173 to 174 °C	CC(=O)Nc1ccc(C(O)C2CCN(CCc3ccccc3)CC2)cc1 (stereo not given)
130 to 134 °C	C[C@H](CC(=O)[C@H](Cc1ccccc1)OC(=O)c1ccccc1)C(=O)N1CCC[C@H]1C(=O)O
135 to 137 °C	CC(C)(C)CCC(=N)NC(=S)Nc1ccc(Cl)cc1
41 °C	[N-]=[N+]=NS(=O)(=O)c1cccc(C(=O)Cl)c1
59 to 61 °C	O=C(C[C@@H](CCc1ccccc1)C(=O)O)OCC(Cl)(Cl)Cl

melting point	SMILES
205 to 206 °C	CC(=O)NCC1CN(c2ccc(N3CCN(c4nccs4)CC3)c(F)c2)C(=O)O1 (stereo not given)
90 to 95 °C	O=C(O)CCC(O)c1ccc(-c2ccccc2Cl)cc1 (stereo not given)
91 to 95 °C	CN(C)CCCNC(=O)N1CCN(c2ccccc2)CC1
146 to 147 °C	CCOC(=O)C(Cc1ccccc1)NC(=O)c1cc2cc(Cl)ccc2[nH]1 (stereo not given)
190 to 194 °C	CCS(=O)(=O)c1ccc(-n2cncc2-c2ccc([N+](=O)[O-])cc2)cc1
128 °C	Clc1nccc(-n2ccnc2)n1
138 to 141 °C	CN(CCc1ccc([N+](=O)[O-])cc1)C1Cc2ccc([N+](=O)[O-])cc2C1 (stereo not given)
61 to 63 °C	Cc1cc2c(cc1-n1cccc1)OC(=O)C2C (stereo not given)
105 to 108 °C	O=C(NCc1cccnc1)c1cc2ccnc(N(Cc3ccccc3)Cc3ccccc3)c2[nH]1
85 to 87 °C	COC(=O)[C@H](Cc1ccc(NC(=O)c2c(Cl)cccc2Cl)cc1)NC(=O)C1(Cc2ccc(OC)cc2)CCCCC1
112 to 114 °C	C=CCOc1ccc(C2C(=O)Oc3c2cc(C(C)(C)C)cc3C(C)(C)C)cc1 (stereo not given)
141 to 142 °C	COC(=O)c1ccc2oc(-c3cccs3)nc2c1
95.5 to 97.5 °C	COC(=O)CC1CCN(CCC=C(c2ccccc2)c2ccccc2)C1 (stereo not given)
67 to 70 °C	Cc1c(C(=O)Cl)cccc1S(=O)(=O)CCCl
118 to 120 °C	O=C(O)COc1cc(Cl)ccc1C(=O)NCCN1CCN(Cc2ccc(Cl)c(Cl)c2)CC1
107 °C	CC(=O)CC(=O)Nc1cccc(NC(C)=O)c1
183 to 185 °C	CC(C)C(=O)NCC(=NNC(N)=S)c1ccccc1
174 °C	NC(Cc1nc2ccccc2nc1CP(=O)(O)O)C(=O)O (stereo not given)
112 to 113 °C	CC(C)=C1c2ccccc2-c2ccccc21
70 °C	O=C(O)CCc1cccc(C(=O)c2ccccc2)c1
142 to 144 °C	CCOC(=O)C(C=O)Cc1ccc(C)nc1 (stereo not given)
64 °C	CCN(CC)C(=O)c1cc(-c2cccs2)c2occc2c1
159 °C	COc1ccc2ccccc2c1-c1c(C)c2c(c(C)c1P(c1ccccc1)c1ccccc1)COC2

melting point	SMILES
165 to 166 °C	Cc1ccccc1CC(=NC#N)NC(NC(=O)Cc1ccc2cccnc2c1)C(C)(C)C (stereo not given)
77 to 78 °C	CC(C)C[C@H](NC(=O)OCc1ccccc1)C(=O)N[C@@H](Cc1ccccc1)C(=O)CSCc1ccco1
218 to 221 °C	COc1cc2c(cc1OC)-c1c(-c3nc(C)no3)c(-c3cc(C)c(O)c(C)c3)c(C)n1CC2
126 to 128 °C	CC(=O)c1ccc(-c2ccc(S)cc2)cc1
80 to 82 °C	CSc1nc(SCc2ccccc2)n[nH]1
99 to 102 °C	Nc1ccc(S(=O)(=O)CCCO)cc1
145 to 147 °C	CC(=O)c1nc(-c2ccccn2)[nH]c1C
138 to 141 °C	O=C(c1ccc(Cl)c(Cl)c1)N(CCCCn1ccnc1)C1=Nc2cccc3cccc1c23
113 to 115 °C	CCCCCCCNC(=O)Nc1ccc(NC(C)=O)cc1C(=O)NC1CCN(C(c2ccccc2)c2ccccc2)CC1
196 to 198 °C	CN(Cc1sc2c(=O)c(C(=O)NCc3ccc(Cl)cc3)cn(C)c2c1CO)CC(O)c1ccc2ccccc2n1 (stereo not given)
< 50 °C	Clc1ccc(OCc2ccccc2)cn1
168 to 170 °C	COc1cn(-c2ccc(-n3cc(F)c(F)c3)cc2OC(F)F)nc(-c2ccnn2-c2ccccc2)c1=O
249 to 252 °C	CCC(=O)NC(C)(C)c1ccc(C(=O)Nc2cn3cc(Cl)ccc3n2)cc1
> 280 °C	NC(CCCCNC(=O)OCc1ccccc1)C(=O)NC1c2ccccc2-c2ccccc21 (stereo not given)
40 to 42 °C	CN(CCCSCCCC(F)(F)C(F)(F)F)CCOc1ccc(C2=C(c3ccccc3)CCCc3cc(O)ccc32)cc1
217 to 218 °C	O=C(NN=Cc1ccc2ccccc2n1)c1cccc([N+](=O)[O-])c1
229 °C	COc1ccc(N2CCCCN(CCCCNC(=O)c3ccc(NC(=O)c4ccc(Cl)cc4)cc3)CC2)c(OC)c1
59.8 °C	CCOC(=O)C1Cc2c(OC)ccc(OC)c2CO1 (stereo not given)
102 °C	C=CCNc1cc(Oc2cc(Cl)c(Br)cc2Cl)c(Cl)cc1[N+](=O)[O-]
257 °C	NC(=O)Nc1cccc2c1C(=O)c1c-2n[nH]c1-c1ccc(N2CCNCC2)cc1
140 to 142 °C	Cc1ccc(-c2nnc(N3CCC(C)CC3)nc2-c2ccc(C)cc2)cc1
94 to 97 °C	O=C(c1ccccc1)c1cc(Cl)ccc1CCCN1C(=O)c2ccccc2C1=O
148 to 150 °C	CC(C)CC(CP(=O)(O)CNC(=O)c1ccccc1)C(=O)N(c1ccc(-c2ccccc2)cc1)[C@@H](C)C(=O)O (stereo not given in full)

SMILES	melting point
Nc1ccc(C2CCNC2)c(F)c1 (stereo not given)	108 to 109 °C
CSCCC1N=C(c2ccccc2)c2cc(Cl)ccc2NC1=O (stereo not given)	184 °C
Cc1cccc(C2=CCN(CCCn3c(=O)[nH]c4cccc(C)c4c3=O)CC2)c1	155 to 160 °C
COc1cc2[nH]c(=O)n(-c3ccccc3C)c(=O)c2cc1OC	282 to 284 °C
Cc1cn2cc(NC(=O)c3cc4cc(F)ccc4n3Cc3cccc(F)c3)ccc2n1	200 to 203 °C
CCCCn1cc(C(=O)C(=O)O)c2cc(-c3cccc(OC)c3)ccc21	108 to 109 °C
Cc1nnc2n1-c1sc(CCc3ccc(CC(C)C)cc3)cc1C(c1ccccc1Cl)=NC2c1ccccc1 (stereo not given)	170 to 172 °C
NC(CCO)C1(c2ccc(Cl)cc2)CCC1 (stereo not given)	98 to 99 °C
